Test results from article PMC3602187, “From Design to Screening: A New Antimicrobial Peptide Discovery Pipeline” (PLoS ONE, 2013).
In brackets after ≈: the same amount, converted by molar mass. Where a SMILES comes first, the peptide text is derived from it.

Tests used:
Listeria innocua 33090 [1] = experiment: MIC determination / agar spot assay of synthetic peptides; type: cell-based
Method: Synthetic samples of wild-type Pln-423, two variants Pln-S23E and Pln-H28R/H34E from this study (Pln-4 and Pln-7 on Fig. 2), and another high-activity variant Pln-S27D/K36N (discovered during a pilot study, data not shown) were tested on agar plates at varying concentrations.
MICs were determined as previously described, [35]. Synthetic peptides were obtained from Peptide 2.0, Inc. (Chantilly, VA) and dissolved in 0.1% acetic acid/water solution at the final concentration of 2.5 mg/ml. Listeria innocua 33090 was grown in TSB until the turbidity of the culture match that of McFarland standard 0.5 (∼OD600 = 0.11) and diluted to final concentration of 5×10^5 cfu/ml in 20 ml TSB soft agar (1.2%) per plate. Two-fold serial dilutions (starting at 128 µg/ml) for each peptide was carried out in ultra-pure deionized water and 5 µl aliquots of each dilution were spotted on TSB plates. After the plates were incubated for 1 h at room temperature, they were placed at 37°C for overnight incubation. This experiment was performed in triplicate and the MIC was calculated as the lowest peptide concentration that formed a visible growth inhibition zone.

Listeria innocua 33090 [2] = experiment: colony overlay assay of peptide-secreting E. coli clones (library screening and re-test); type: cell-based; set-up: key: higher activity group (H); equal activity group (E); lower activity group (L); conditions: library screening; selected colonies pooled by zone size; peptides identified by 454 sequencing, full-length sequences with minimum 20 reads
In short: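 Pln-423 mutant library expressed periplasmically in leaky E. coli JE5505 (pFLAG-CTS); colonies grown 24 h at 37°C, then overlaid with TSB soft agar containing 1 mM IPTG and L. innocua ATCC 33090 (OD600 = 0.03) and incubated overnight at 30°C. Activity scored by inhibition-zone size versus wild-type Pln-423; hits re-tested after 4 h regrowth.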

Molecule	activity group by size of inhibition zone compared to wild-type Pln-423 (Listeria innocua 33090 [2])	other results
CC(C)C[C@H](NC(=O)[C@H](CCCNC(=N)N)NC(=O)[C@H](CO)NC(=O)[C@@H](NC(=O)[C@H](CO)NC(=O)[C@H](CS)NC(=O)[C@H](CO)NC(=O)[C@H](Cc1ccccc1)NC(=O)[C@H](C)NC(=O)[C@H](CCC(N)=O)NC(=O)CNC(=O)[C@H](Cc1c[nH]c2ccccc12)NC(=O)[C@H](CC(N)=O)NC(=O)[C@@H](NC(=O)[C@H](CO)NC(=O)[C@H](CS)NC(=O)[C@H](CO)NC(=O)[C@H](Cc1c[nH]cn1)NC(=O)[C@H](CCCCN)NC(=O)CNC(=O)[C@H](CS)NC(=O)[C@@H](NC(=O)[C@@H](NC(=O)CNC(=O)[C@H](CC(N)=O)NC(=O)CNC(=O)[C@H](Cc1ccc(O)cc1)NC(=O)[C@H](Cc1ccc(O)cc1)NC(=O)[C@@H](N)CCCCN)C(C)C)[C@@H](C)O)C(C)C)C(C)C)C(=O)N[C@@H](C)C(=O)N[C@@H](CC(N)=O)C(=O)N[C@@H](Cc1ccccc1)C(=O)NCC(=O)N[C@@H](CCC(=O)O)C(=O)NCC(=O)N[C@@H](CCCCN)C(=O)N[C@@H](CS)C(=O)O [PLN-H28R/H34E] (H-KYYGNGVTCGKHSCSVNWGQAFSCSVSRLANFGEGKC-OH; N-terminus and C-terminus assumed)		MIC fold lower than wild-type Pln-423 (Listeria innocua 33090 [1]; synthetic peptides): 2 fold
CC(C)C[C@H](NC(=O)[C@H](Cc1c[nH]cn1)NC(=O)[C@H](CO)NC(=O)[C@@H](NC(=O)[C@H](CO)NC(=O)[C@H](CS)NC(=O)[C@H](CCC(=O)O)NC(=O)[C@H](Cc1ccccc1)NC(=O)[C@H](C)NC(=O)[C@H](CCC(N)=O)NC(=O)CNC(=O)[C@H](Cc1c[nH]c2ccccc12)NC(=O)[C@H](CC(N)=O)NC(=O)[C@@H](NC(=O)[C@H](CO)NC(=O)[C@H](CS)NC(=O)[C@H](CO)NC(=O)[C@H](Cc1c[nH]cn1)NC(=O)[C@H](CCCCN)NC(=O)CNC(=O)[C@H](CS)NC(=O)[C@@H](NC(=O)[C@@H](NC(=O)CNC(=O)[C@H](CC(N)=O)NC(=O)CNC(=O)[C@H](Cc1ccc(O)cc1)NC(=O)[C@H](Cc1ccc(O)cc1)NC(=O)[C@@H](N)CCCCN)C(C)C)[C@@H](C)O)C(C)C)C(C)C)C(=O)N[C@@H](C)C(=O)N[C@@H](CC(N)=O)C(=O)N[C@@H](Cc1ccccc1)C(=O)NCC(=O)N[C@@H](Cc1c[nH]cn1)C(=O)NCC(=O)N[C@@H](CCCCN)C(=O)N[C@@H](CS)C(=O)O [PLN-S23E] (H-KYYGNGVTCGKHSCSVNWGQAFECSVSHLANFGHGKC-OH; N-terminus and C-terminus assumed)	H and L	MIC (Listeria innocua 33090 [1]; synthetic peptide, 5 µl of two-fold serial dilutions spotted on TSB soft agar (1.2%) with 5×10^5 cfu/ml, 1 h room temperature, then 18 h at 37°C, lowest concentration with visible inhibition zone, triplicate): 1 µM (≈ 3.98 µg/mL); MIC fold higher compared to Pln-WT (Listeria innocua 33090 [1]; synthetic peptides): 13 fold
CC(C)C[C@H](NC(=O)[C@H](Cc1c[nH]cn1)NC(=O)[C@H](CC(=O)O)NC(=O)[C@@H](NC(=O)[C@H](CO)NC(=O)[C@H](CS)NC(=O)[C@H](CO)NC(=O)[C@H](Cc1ccccc1)NC(=O)[C@H](C)NC(=O)[C@H](CCC(N)=O)NC(=O)CNC(=O)[C@H](Cc1c[nH]c2ccccc12)NC(=O)[C@H](CC(N)=O)NC(=O)[C@@H](NC(=O)[C@H](CO)NC(=O)[C@H](CS)NC(=O)[C@H](CO)NC(=O)[C@H](Cc1c[nH]cn1)NC(=O)[C@H](CCCCN)NC(=O)CNC(=O)[C@H](CS)NC(=O)[C@@H](NC(=O)[C@@H](NC(=O)CNC(=O)[C@H](CC(N)=O)NC(=O)CNC(=O)[C@H](Cc1ccc(O)cc1)NC(=O)[C@H](Cc1ccc(O)cc1)NC(=O)[C@@H](N)CCCCN)C(C)C)[C@@H](C)O)C(C)C)C(C)C)C(=O)N[C@@H](C)C(=O)N[C@@H](CC(N)=O)C(=O)N[C@@H](Cc1ccccc1)C(=O)NCC(=O)N[C@@H](Cc1c[nH]cn1)C(=O)NCC(=O)N[C@@H](CC(N)=O)C(=O)N[C@@H](CS)C(=O)O [PLN-S27D/K36N] (H-KYYGNGVTCGKHSCSVNWGQAFSCSVDHLANFGHGNC-OH; N-terminus and C-terminus assumed)		MIC fold lower than wild-type Pln-423 (Listeria innocua 33090 [1]; synthetic peptides): 2 fold
KYYGNGVTCGKHSCSVNWGQAFVCSVSHLANFGHGKC* [Pep-1_34]	L and E	
KYYGNGVTCGKHSCSVNWGQAFVCSVSHLANFGHGTC* [Pep-2_3699]	E and H	
KYYGNGVTCGKHSCSVNWGQAFWCSVSHLANFGHGKC* [Pep-1_36]	L	
KYYGNGVTCGKHSCSVNWGQAFWCSVSKLANFGHGKC* [Pep-2_3865]	L	
KYYGNGVTCGKHSCSVNWGQAFYCSVSHLANFGHGKC* [GROUP L-UM-29]	L	
KYYGNGVTCGKHSCSVNWGQAGSCSVSRLANFGHGKC* [Pep-2_6539]	H	
KYYGNGVTCGKHSCSVNWGQAGSCVVSHLANFGHGKC* [Pep-2_4919]	L	
KYYGNGVTCGKHSCSVNWGQAIVCSVSHLANFGHGKC* [Pep-2_3622]	L	
KYYGNGVTCGKHSCSVNWGQALSCAVSHLANFGHGKC* [Pep-2_5026]	L	
KYYGNGVTCGKHSCSVNWGQALSCSVTHLANFGHGKC* [GROUP L-UM-8]	L	
KYYGNGVTCGKHSCSVNWGQAMSCSVSRLANFGHGKC* [Pep-2_6538]	E	
KYYGNGVTCGKHSCSVNWGQAVSCSVHHLANFGHGKC* [GROUP E-UM-6]	E	
KYYGNGVTCGKHSCSVNWGQAVSCSVSHLANFGHGKC* [Pep-1_28]	E	
KYYGNGVTCGKHSCSVNWGQAYSCSVSHLANFGHGKC* [GROUP L-UM-21]	L	
KYYGNGVTCGKHSCSVNWGQGFSCAVSHLANFGHGKC* [Pep-2_2447]	L	
KYYGNGVTCGKHSCSVNWGQGFSCSVNHLANFGHGKC* [Pep-2_2457]	L	
KYYGNGVTCGKHSCSVNWGQGFSCSVSHLANFGHGKC* [Pep-1_23]	L	

Molecule	activity group by size of inhibition zone compared to wild-type Pln-423 (Listeria innocua 33090 [2])	other results
KYYGNGVTCGKHSCSVNWGQSFSCSFSHLANFGHGKC* [Pep-2_5559]	L	
KYYGNGVTCGKHSCSVNWGQSFSCSVSHLANFGHGKC* [GROUP E-UM-5]	E	
KYYGNGVTCGKHSCSVNWGQVFSCSVSHLANFGHGHC* [Pep-2_11716]	L	
KYYGNGVTCGKHSCSVNWGQVFSCSVSHLANFGHGKC* [Pep-1_22]	L	
KYYGNGVTCGKHSCSVNWGQWFSCSVSHLANFGMGKC* [Pep-2_10746]	L	
KYYGNGVTCGKHSCSVNWGRAFSCSVAHLANFGHGKC* [Pep-2_6307]	L	
KYYGNGVTCGKHSCSVNWGRAFSCSVSRLANFGHGKC* [Pep-2_6523]	L	
KYYGNGVTCGKHSCSVNWGSAFSCSVSHLANFGEGSC* [GROUP L-UM-24]	L	
KYYGNGVTCGKHSCSVNWGTAFSCSISHLANFGHGKC* [Pep-2_1588]	E	
KYYGNGVTCGKHSCSVNWGTAFSCSVSYLANFGHGKC* [GROUP L-UM-14]	L	
KYYGNGVTCGKHSCSVNWGVAFSCSVSHLANFGHGWC* [Pep-2_1758]	L	
KYYGNGVTCGKHSCSVNWGVAFSCSVSHLANFGHGYC* [Pep-2_1755]	L	
KYYGNGVTCGKHSCSVNWGWAFSCSVSHLANFGHGKC* [Pep-1_18]	L	
KYYGNGVTCGKHSCSVNWNQAFYCSVSHLANFGHGKC* [Pep-2_921]	L	
KYYGNGVTCGKHSCSVNYGQAFACSVSHLANFGHGKC* [Pep-2_257]	L	
KYYGNGVTCGKHSCSVNYGQAFSCSVSHLANFGHGAC* [Pep-2_335]	E	
KYYGNGVTCGKHSCSVNYGQAFSCSVWHLANFGHGKC* [Pep-2_282]	E	
KYYGNGVTCGKHSCSVNYGQLFSCSVSHLANFGHGKC* [GROUP L-UM-22]	L	
KYYGNGVTCGNYSCSVNWGQAFSCSVVHLAEFGHGKC* [GROUP L-UM-10]	L	
